Tests used:
[1] = biological target: T1, ΔABD-p110δ (Mus musculus, UniProt O35904); assay: Surface plasmon resonance binding assay (Biacore); set-up: species or system murine; conditions: for dissociation from the protein during the dissociation phase: idelalisib 0.12-30 nM, wortmannin 2 μM, 1-hour dissociation phase
T1 construct: digested with the rTEV protease to remove the iSH2 and ABD domains; made in house
T1 sequence (O35904 106-1043 limits assumed): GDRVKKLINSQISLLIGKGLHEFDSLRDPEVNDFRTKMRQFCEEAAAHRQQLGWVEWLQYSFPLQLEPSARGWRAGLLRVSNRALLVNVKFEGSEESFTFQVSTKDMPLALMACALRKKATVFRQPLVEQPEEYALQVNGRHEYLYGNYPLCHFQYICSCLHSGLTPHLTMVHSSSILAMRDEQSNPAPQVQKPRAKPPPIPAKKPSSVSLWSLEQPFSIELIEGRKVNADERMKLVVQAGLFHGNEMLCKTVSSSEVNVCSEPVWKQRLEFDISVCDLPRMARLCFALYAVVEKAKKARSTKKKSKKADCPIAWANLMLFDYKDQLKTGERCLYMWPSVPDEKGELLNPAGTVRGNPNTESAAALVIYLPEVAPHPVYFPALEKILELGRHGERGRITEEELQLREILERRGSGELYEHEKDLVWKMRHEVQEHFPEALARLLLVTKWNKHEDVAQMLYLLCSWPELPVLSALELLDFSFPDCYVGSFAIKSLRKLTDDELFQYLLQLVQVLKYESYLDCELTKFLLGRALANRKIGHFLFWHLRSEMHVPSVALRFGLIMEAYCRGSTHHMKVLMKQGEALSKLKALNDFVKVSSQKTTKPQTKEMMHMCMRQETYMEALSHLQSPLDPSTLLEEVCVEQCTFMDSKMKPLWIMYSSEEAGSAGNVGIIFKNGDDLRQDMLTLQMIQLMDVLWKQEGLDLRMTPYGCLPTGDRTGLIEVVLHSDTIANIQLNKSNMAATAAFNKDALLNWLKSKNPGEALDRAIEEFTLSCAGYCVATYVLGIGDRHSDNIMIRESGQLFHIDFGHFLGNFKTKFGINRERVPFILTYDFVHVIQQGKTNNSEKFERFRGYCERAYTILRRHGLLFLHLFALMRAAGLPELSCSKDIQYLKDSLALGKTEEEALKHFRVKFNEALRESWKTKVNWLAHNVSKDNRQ
Method: ΔABD-p110δ was minimally biotinylated using a 1:1 molar ratio of protein to EZ-link sulfo-NHS-LC-LC-biotin (ThermoScientific; catalog no. 21338). […] Following incubation for 1 h at 4 °C, the mixture was desalted using a Zeba spin desalting column (ThermoScientific; catalog no. 89883) pre-equilibrated in Biacore running buffer (25 mM HEPES, pH 7.5, 150 mM NaCl, 5 mM MgCl2, 1 mM TCEP, 5% glycerol, 0.05% P20) to remove any unreacted biotin. […] Characterization of inhibitor binding and dissociation was performed using a Biacore T100 instrument and research grade series S CM5 sensor chips (GE Healthcare; catalog no. BR-1005-30). Before use, CM5 sensor chips were preconditioned using two 6-s pulses each of 100 mM HCl, 50 mM NaOH, 0.5% (w/v) SDS, and deionized H2O at a flow rate of 100 μl/min. Approximately 15,000 response units (RU) of neutravidin was immobilized on all four surfaces via standard amine-coupling chemistry (GE Healthcare; catalog no. BR-1000-50) in HBS-P buffer (10 mM HEPES, pH 7.4, 150 mM NaCl, 0.005% P20). Biotinylated protein was injected over separate flow cells to achieve capture levels ranging between 6,000 and 14,000 response units. Any remaining free sites on neutravidin were blocked with two 5-min pulses of 50 μM EZ-Link-Amine-PEG2-Biotin (ThermoScientific; catalog no. 21346) at a flow rate of 30 μl/min. […] Wortmannin was injected on a separate sensor chip at a concentration of 2 μM for an 8-min association phase and a 1-hour dissociation phase. At the end of each injection cycle, the injection needle and tubing were washed with 50% DMSO using the “extra wash” command. A five-point DMSO concentration series (ranging from 0.8% to 1.2% DMSO) was included to generate a calibration curve to correct for excluded volume effects. Sensorgrams were double-referenced and corrected for solvent effects using Scrubber 2.0c software (Biologic Software, Campbell, Australia) but fitted using both Scrubber and CLAMP software ([23]).
The data were fitted using a mass transport model ([24], [25]). Three independent surfaces were globally fit for the association and dissociation rates ka and […], while floating the maximum binding response (Rmax) and mass transport (kt) constant for each surface. […] For wortmannin, only an off-rate analysis was performed.

[2] = biological target: recombinant PI3Kδ (p110δ-p85α) (Mus musculus, UniProt O35904); assay: Competition of idelalisib with ATP (HTRF kinetic assay); assay type: biochemical, murine
Method: After a 1-h preincubation period, PIP2 was added to a final concentration of 10 μM, and ATP was added at concentrations from 0 to 1.5 mM to initiate the reaction. After 45 min, the reactions were quenched with a stop solution from the assay kit. A detection solution was then added to each well, and the mixture was further incubated for 2 h. Time-resolved fluorescence was measured with a Tecan Infinite M1000 plate reader, using an excitation wavelength of 330 nm and emission wavelengths of 620 and 665 nm. The ratio of emission at 665 nm to that at 620 nm was used as the measure of reaction rate. […] Values of α ≫ 1 are indicative of competitive inhibition, values of α approximately equal to 1 imply noncompetitive inhibition, and values of α ≪ 1 are characteristic of uncompetitive inhibitors ([22]).

[3] = biological target: PI3Kδ (murine p110δ-p85α) (Mus musculus, UniProt O35904); assay: biochemical
Description: All IC50 values represent geometric mean values of a minimum of four determinations.

[4] = test system: broad panel of 351 kinases and 44 mutant kinases; assay: KINOMEscan kinase panel; assay type: binding; conditions: 10 μM idelalisib
Method: The enzymatic activity of the class I PI3K isoforms was measured using a time-resolved FRET assay that monitors formation of the product PIP3, because it competes with fluorescently labeled PIP3 for binding to the GRP-1 pleckstrin homology domain protein. An increase in PIP3 product results in a decrease in time-resolved FRET signal as the labeled fluorophore is displaced from the GRP-1. […] After an assay reaction time of 30 min at 25 °C, reactions were terminated with a final concentration of 10 mM EDTA, 10 nM labeled PIP3, and 35 nM europium-labeled GRP-1 detector protein before reading time-resolved FRET on an Envision plate reader (excitation, 340 nm; emission, 615/665 nm; delay, 100 μs; and read window, 500 μs). […] All IC50 values represent geometric mean values of a minimum of four determinations. These assays generally produced results within 3-fold of the reported mean.

[5] = biological target: PI3Kδ-p85α (Mus musculus, UniProt O35904); assay: Reversibility (dilution) assay; assay type: biochemical, murine; conditions: preincubation 1 h with 400 nM idelalisib or 100 nM wortmannin; 10 μM PIP2, 300 μM ATP
Method: One microliter of solution was transferred to 99 μl of reaction buffer solution containing 10 μM PIP2 and 300 μM ATP to initiate the enzyme reaction. At 5-min intervals, samples from each reaction were quenched with HTRF stop solution, and fluorescence was measured using the detection kit as described above. The reactions were measured over a time frame of 40 min. […] The data were analyzed with linear least square fits to obtain reaction rates.

[6] = biotinylated p110δ captured on neutravidin, mass transport model, global fit

recombinant PI3Kδ (p110δ-p85α), sequence (O35904 whole entry): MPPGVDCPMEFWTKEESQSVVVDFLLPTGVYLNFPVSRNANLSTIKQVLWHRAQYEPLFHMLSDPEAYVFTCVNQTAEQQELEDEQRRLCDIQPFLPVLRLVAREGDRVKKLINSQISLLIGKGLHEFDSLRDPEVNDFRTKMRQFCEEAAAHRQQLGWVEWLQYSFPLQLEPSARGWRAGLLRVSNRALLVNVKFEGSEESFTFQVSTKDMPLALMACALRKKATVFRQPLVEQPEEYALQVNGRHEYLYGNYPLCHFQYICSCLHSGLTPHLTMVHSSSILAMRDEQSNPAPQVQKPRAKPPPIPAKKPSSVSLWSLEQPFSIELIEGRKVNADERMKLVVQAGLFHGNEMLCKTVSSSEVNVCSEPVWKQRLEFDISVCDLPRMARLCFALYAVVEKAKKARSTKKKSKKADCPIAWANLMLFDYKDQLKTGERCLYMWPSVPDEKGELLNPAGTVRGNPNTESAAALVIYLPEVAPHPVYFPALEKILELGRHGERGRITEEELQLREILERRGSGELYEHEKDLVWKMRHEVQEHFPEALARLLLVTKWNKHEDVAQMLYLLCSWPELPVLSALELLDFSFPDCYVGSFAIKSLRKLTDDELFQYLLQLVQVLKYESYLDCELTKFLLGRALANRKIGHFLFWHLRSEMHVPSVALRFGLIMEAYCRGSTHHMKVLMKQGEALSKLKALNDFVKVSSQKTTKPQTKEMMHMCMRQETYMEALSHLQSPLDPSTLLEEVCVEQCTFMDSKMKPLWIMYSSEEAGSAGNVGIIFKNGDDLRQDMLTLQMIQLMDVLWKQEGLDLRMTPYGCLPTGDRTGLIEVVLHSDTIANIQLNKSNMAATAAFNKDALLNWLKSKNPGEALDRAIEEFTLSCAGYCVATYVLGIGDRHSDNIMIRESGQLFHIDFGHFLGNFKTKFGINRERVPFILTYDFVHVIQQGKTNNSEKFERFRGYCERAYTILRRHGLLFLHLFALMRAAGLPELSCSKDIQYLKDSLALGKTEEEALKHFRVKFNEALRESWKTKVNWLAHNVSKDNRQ
recombinant PI3Kδ (p110δ-p85α), sequence (P27986 whole entry partner): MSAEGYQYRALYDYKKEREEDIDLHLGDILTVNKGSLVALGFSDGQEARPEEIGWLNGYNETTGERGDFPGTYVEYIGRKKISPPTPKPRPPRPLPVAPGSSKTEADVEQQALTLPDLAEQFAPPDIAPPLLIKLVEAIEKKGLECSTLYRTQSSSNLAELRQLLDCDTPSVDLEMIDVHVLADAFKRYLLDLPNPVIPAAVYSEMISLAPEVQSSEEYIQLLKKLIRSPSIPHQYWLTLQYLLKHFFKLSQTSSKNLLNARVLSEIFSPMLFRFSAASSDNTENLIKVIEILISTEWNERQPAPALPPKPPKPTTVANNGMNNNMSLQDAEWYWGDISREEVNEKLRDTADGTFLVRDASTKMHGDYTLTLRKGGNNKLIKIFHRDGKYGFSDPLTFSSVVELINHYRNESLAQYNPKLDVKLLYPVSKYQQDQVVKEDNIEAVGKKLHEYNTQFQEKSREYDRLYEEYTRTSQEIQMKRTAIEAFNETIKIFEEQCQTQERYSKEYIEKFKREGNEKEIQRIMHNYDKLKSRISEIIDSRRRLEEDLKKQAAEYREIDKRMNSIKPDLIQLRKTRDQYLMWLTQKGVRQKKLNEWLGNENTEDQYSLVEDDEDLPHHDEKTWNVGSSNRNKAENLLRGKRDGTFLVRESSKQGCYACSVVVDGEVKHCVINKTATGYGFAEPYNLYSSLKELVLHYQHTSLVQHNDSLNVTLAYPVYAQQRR
PI3Kδ-p85α, sequence (O35904 whole entry): as the sequence (O35904 whole entry) above
PI3Kδ-p85α, sequence (P27986 whole entry partner): as the sequence (P27986 whole entry partner) above
PI3Kδ (murine p110δ-p85α), sequence (O35904 whole entry): as the sequence (O35904 whole entry) above
PI3Kδ (murine p110δ-p85α), sequence (P27986 whole entry partner): as the sequence (P27986 whole entry partner) above

Structure (SMILES)	off rate kd [1, 6] [s⁻¹]	on rate ka [1, 6] [M⁻¹ s⁻¹]	dissociation from the protein during the dissociation phase [1]	Ki ([2]; read-out: Ki (inhibition constant)) [nM]	mode of inhibition (parameter α of the global fit) ([2]; α ≫ 1)	IC50 [3] [nM]	most potent percent inhibition seen for any non-PI3K kinase [4] [%]	recovery of enzyme activity following 1:100 dilution of the enzyme-inhibitor complex [5]
CC[C@H](Nc1ncnc2[nH]cnc12)c1nc2cccc(F)c2c(=O)n1-c1ccccc1 [Idelalisib, 5-fluoro-3-phenyl-2-[(1S)-1-(9H-purin-6-ylamino)propyl]quinazolin-4(3H)-one]	0.00634	5.18e+06	complete dissociation	1.5 ± 0.1	ATP-competitive inhibition	19	47	enzyme activity was quickly recovered
COC[C@H]1OC(=O)c2coc3c2[C@@]1(C)C1=C(C3=O)[C@@H]2CCC(=O)[C@@]2(C)C[C@H]1OC(C)=O [wortmannin]			no dissociation after 1 h					did not show detectable recovery of activity upon dilution

Reference: paper PMC4375495 (The Journal of Biological Chemistry, 2015)
